# Measurements reported in patent US9417245B2, “Porphyrinic compounds for use in flow cytometry” (North Carolina State University, priority 2005, dated 2016).
# “And” between values parts separate entries of the source, which are not always exact repeats. Equal values may be shown once. Read-outs that look alike come from different tables or passages of the source.
# Experiments:
# [1] = Absorption spectroscopy of chlorins (B and Qy bands, log ε, B/Qy ratio); assay type: physicochemical; conditions: for ΔvQy: Example 2 Table 2, redshift relative to the parent chlorin (ZnC or Zn-M^10)
# From the text: (§1) The spectral properties of interest in the chlorins include the position of the long-wavelength Qy transition, the intensity of the Qy transition, and the fluorescence quantum yield of the chlorin. The intensity of the Qy transition can be assessed by the measured molar absorption coefficient; however, comparisons of such values are somewhat unreliable given the experimental variability encountered upon handling small quantities of materials. A better comparison is achieved by examination of the ratio of the intensities of the B and Qy bands for a given compound (B/Qy ratio), which is determined simply by absorption spectroscopy without requiring determination of the molar absorption coefficient. For a wide variety of applications, bathochromic and hyperchromic shifts of the Qy band are desired (i.e., shifted to longer wavelength and intensified), thereby affording strong absorption in the deep-red region.
# ^1H NMR (400 MHz) and ^13C NMR (75 MHz) spectra were collected at room temperature in CDCl3. Absorption spectra were obtained in toluene at room temperature. Chlorins were analyzed by laser desorption mass spectrometry (LD-MS) in the absence of a matrix. Fast atom bombardment mass spectrometry (FAB-MS) data are reported for the molecule ion or protonated molecule ion. Melting points are uncorrected. All commercially available materials were used as received. All palladium-coupling reactions were carried out using standard Schlenk-line techniques.
# as §1, with “increased” for “intensified), thereby affording strong absorption”, “intensity).” for “the deep-red region.”
# ^1H NMR (400 MHz) and ^13C NMR (75 MHz) spectra were collected at room temperature in CDCl3 unless noted otherwise. Absorption spectra were obtained in toluene at room temperature. Chlorins were analyzed by laser desorption mass spectrometry (LD-MS) in the absence of a matrix. Metalation of free base chlorins was monitored by fluorescence spectroscopy. Melting points are uncorrected. All commercially available materials were used as received.
# [2] = Fluorescence spectroscopy (emission bands, fluorescence quantum yield); assay type: physicochemical; conditions: in toluene at room temperature
# Protocol: The fluorescence spectra and fluorescence quantum yields reported herein were collected in toluene at room temperature. Measurements of fluorescence quantum yield (Φf) were carried out using chlorin Zn-11 (Φf=0.065) as a standard.^16
# [3] = literature, cited from earlier work; for Qy band position: FIG. 3, natural pigments, in diethyl ether
Compound,Qy band position ([1]; in toluene at room temperature),ΔvQy ([1]; toluene) [cm⁻¹],Qy band position [3],also measured
"CC(=O)c1cc2[n]3c1=CC1=NC(=Cc4ccc([n]4[Zn]3)C(c3ccc(C)cc3)=C3C=CC(=N3)C=2c2c(C)cc(C)cc2C)C(C)(C)C1 [Zn-1, Zn(II)-13-Acetyl-17,18-dihydro-10-mesityl-18,18-dimethyl-5-p-tolylporphyrin]",632 nm and 635 nm,–,–,"strong Qy(0,0) / dominant fluorescence band [2]: around 641 nm; B band position ([1]; in toluene at room temperature): 424 nm; B/Qy band intensity ratio ([1]; in toluene at room temperature): 2.9; log ε (Qy band) ([1]; molar absorption coefficient comparison, toluene): 4.75"
"Cc1cc(C)c(C2=c3cc(C#C[Si](C(C)C)(C(C)C)C(C)C)c4[n]3[Zn][n]3c(cc(C#C[Si](C(C)C)(C(C)C)C(C)C)c3C=C3C=CC2=N3)C=C2N=C(C=4)CC2(C)C)c(C)c1 [ZnC-E^3M^10E^13, Zn(II)-3,13-Bis[2-(triisopropylsilyl)ethynyl]-17,18-dihydro-10-mesityl-18,18-dimethylporphyrin]",646 nm,1020,–,–
"Cc1cc(C)c(C2=c3cc(C#C[Si](C(C)C)(C(C)C)C(C)C)c4[n]3[Zn][n]3c(ccc3C=C3N=C(C=4)CC3(C)C)C=C3C=CC2=N3)c(C)c1 [ZnC-M^10E^13, Zn(II)-13-[2-(Triisopropylsilyl)ethynyl]-17,18-dihydro-10-mesityl-18,18-dimethylporphyrin]",626 nm,530,–,–
C=Cc1c(C)c2cc3nc(c4c5[n-]c(cc6nc(cc1[n-]2)C(C)=C6CC)c(C)c5C(=O)[C@@H]4C(=O)OC)[C@@H](CCC(=O)OC/C=C(\C)CCC[C@H](C)CCC[C@H](C)CCCC(C)C)[C@@H]3C.[Mg+2] [chlorophyll a],–,–,662 nm,B band position ([3]; chlorophyll a): 430 nm; B/Qy band intensity ratio ([3]; chlorophyll a): 1.3
C=Cc1c(C)c2cc3nc(c4c5[n-]c(cc6nc(cc1[n-]2)C(C=O)=C6CC)c(C)c5C(=O)[C@@H]4C(=O)OC)[C@@H](CCC(=O)OC/C=C(\C)CCC[C@H](C)CCC[C@H](C)CCCC(C)C)[C@@H]3C.[Mg+2] [chlorophyll b],–,–,644 nm and 642 nm,–
pheophytin a,–,–,667 nm,–

# The next lines start with results.
Qy band position ([1]; in toluene at room temperature),ΔvQy ([1]; toluene) [cm⁻¹],Compound,Qy band position [3],also measured
660 nm,–,"Cc1ccc(-c2c3nc(c(-c4c(C)cc(C)cc4C)c4cc5c([nH]4)c(c4nc(cc6ccc2[nH]6)C(C)(C)C4)CC5=O)C=C3)cc1 [Compound 2, 18,18-Dimethyl-10-mesityl-13^1-oxo-5-p-tolylphorbine]",–,–
652 nm,1160,"CC(=O)c1cc2[n]3c1C=C1CC(C)(C)C(=N1)C=c1cc(C#C[Si](C(C)C)(C(C)C)C(C)C)c([n]1[Zn]3)=CC1=NC(=C2c2c(C)cc(C)cc2C)C=C1 [ZnC-E^3M^10A^13, Zn(II)-13-Acetyl-3-[2-(triisopropylsilyl)ethynyl]-17,18-dihydro-10-mesityl-18,18-dimethylporphyrin]",–,–
632 nm,680,"CC(=O)c1cc2[n]3c1C=C1CC(C)(C)C(=N1)C=c1ccc([n]1[Zn]3)=CC1=NC(=C2c2c(C)cc(C)cc2C)C=C1 [ZnC-M^10A^13, Zn(II)-13-Acetyl-17,18-dihydro-10-mesityl-18,18-dimethylporphyrin]",–,B/Qy band intensity ratio ([1]; in toluene at room temperature): 2.2
621 nm,400,C=Cc1cc2[n]3c1C=C1C=CC(=N1)C(c1c(C)cc(C)cc1C)=c1ccc([n]1[Zn]3)=CC1=NC(=C2)C(C)(C)C1 [ZnC-V^3M^10],–,–
